Entries after “also recorded” stand apart in the source; their conditions may differ. A value given as a limit tells only on which side of the number the result lay.

The test system of data set [1] is male mice. As to the kind of experiment: Subthreshold social defeat stress (SSDS) followed by social interaction test. It counts as in vivo, mouse. The note with it: chronic treatment (silastic implant or minipump); orchiectomized male mice + SSDS. The protocol:
(§1) Subthreshold social defeat stress: Retired CD1 breeders are singly housed and used as aggressors. Experimental mice are introduced to the home cage of an aggressor for 2 min to initiate the physical attack phase. Afterward, mice are transferred and housed on the opposite side of the aggressor, in the same cage separated by a perforated Plexiglass divider for 15 mins in order to maintain sensory contact. This process is repeated 3 times over a period of ~50 min.
(§2) Social Interaction: Mice are placed in a rectangular box (40 cm length×30 cm width×35 cm height; Stoelting, IL) divided into three compartments (two equal-sized end-chambers and a middle chamber) for five minute habituation phase (10-15 lux). After the habituation phase, two small wire cages are introduced into the two end chambers, one containing an unfamiliar, non-aggressive CD1 mouse and the other remaining empty. The amount of time mice spent sniffing each cage during the five-min test is assessed using CleverSys tracking software (CleverSys, Inc, Reston VA, USA).
(§3) For the chronic administration paradigms, silastic tubes (1.02 mm inner diameter×2.16 mm outer diameter) were filled with testosterone (10 mm) or 17β-Estradiol (E2; 1,3 and 10 mm; Sigma-Aldrich, St. Louis, MO, USA). Silastic implants were primed in 0.9% saline at 37° C. overnight prior to their subcutaneous use. Letrozole (1 mg/kg/day; Sigma-Aldrich, St. Louis, MO, USA) was dissolved in propylene glycol (MP Biomedicals, Santa Ana, CA, USA) and administered through ALZET minipumps (Model 1002, 0.25 μl/hour, 14 days; Cupertino, CA, USA). DHED (synthesized using previously described methods) was dissolved in 0.9% saline and administered through ALZET minipumps (Model 1002, 0.25 μl/hour, 14 days; Cupertino, CA, USA) at a dose of […]. Flutamide was administered through 1.5 mg slow-release subcutaneous pellets (Innovative Research of America, Sarasota, FL, USA). For acute administration, 17β-Estradiol (E2; 10 and […]) was dissolved in sesame oil (4 ml/kg, s.c.; Sigma-Aldrich, St. Louis, MO, USA).
(§4) Retired CD1 breeders were singly housed and used as aggressors. Two days prior to the start of the experiment, experimental mice were also singly housed. The stress procedure was performed using previously described methods. Briefly, experimental mice were introduced to the home cage of an aggressor for 2 min to initiate the physical attack phase. Afterward, mice were transferred and housed on the opposite side of the aggressor, in the same cage separated by a perforated Plexiglass divider for 15 mins in order to maintain sensory contact. This process was repeated 3 times over a period of ~50 min. Following the completion of the third cycle, mice were placed back in their home cages.
(§5) Acute E2 was administered 45 min prior to the initiation of stress or 5 min after the completion of stress. For the optogenetic stimulation, ChR2 and YFP-injected mice received a 4 Hz, 5 ms pulse width, 10-15 mW 470 nm light stimulation for 45 min prior to the initiation of stress. This stimulation paradigm was shown previously to increase synaptic transmission. The optogenetic set up consisted of an LED driver paired with a fiber-coupled LED light source attached to a bifurcated optogenetic path cable (400 μm, 0.49 NA; ThorLabs, Newton NJ, USA).
as §2, with “Social interaction was performed 24 hours following subthreshold social defeat or inescapable foot-shock stress. For the habituation phase, mice were” for “Social Interaction: Mice are”, “five minutes” for “five minute habituation phase”, “cages were” for “cages are”, “test was” for “test is”

The test system of data set [2] is male mice. As to the kind of experiment: Subthreshold social defeat stress followed by female urine sniffing test (anhedonia). It counts as in vivo, mouse. The note with it: chronic treatment (silastic implant or minipump); orchiectomized male mice + SSDS. The protocol:
as §1
Female Urine Preference Test: is performed 24 hours after the social interaction test as using previously described methods. The amount of time mice spent interacting with a cotton-tipped applicator soaked in either fresh male or female mouse urine during a total of 3 minutes is analyzed by an experimenter blind to the experimental groups.
as §3, §4, §5
FUST procedure was performed 24 hours after the social interaction test and 48 hours after stress. FUST was performed using previously described methods. The amount of time mice spent interacting with a cotton-tipped applicator soaked in either fresh male or female mouse urine during a total of 3 minutes was analyzed by an experimenter blind to the experimental groups.

Data set [3] can be described thus: Body, testis and seminal vesicle weights after hormonal treatments. In kind it is in vivo, mouse. The protocol:
as §3
Subcutaneous implantations were performed during the same time as the orchiectomies. The surgical area was thoroughly cleaned with Betadine solution (10% povidone-iodine surgical scrub) followed by 70% ethanol. A small, approximately 1-cm incision was made between the scapulae using a pair of small sterile surgical scissors. Hemostats were then inserted and spread laterally to the incision to create a cavity in the subcutaneous space in which ALZET mini-osmotic pumps or silastic implants were inserted for continuous drug/vehicle delivery. The skin was closed with suturing.

A short description of another data set: in vivo. The note with it: male, C57BL/6J, mouse. From the text:
Although these findings support a critical role for E2, and not testosterone itself, as the biologically active hormone mediating stress susceptibility in hypogonadal male mice, E2 replacement therapy cannot be considered as a viable treatment in human male veteran populations due to its peripheral side effects, including gynecomastia and erectile dysfunction. However, isolating the effects of E2 to the central nervous system would provide a viable therapy. […] As a next step in advancing this treatment, the oral bioavailability of DHED was assessed, comparing oral versus intravenous delivery routes.
Pharmacokinetic (PK) assessment of prodrugs. […] Generally, this PK study and analysis proceeds similarly to previous studies aimed at assessing the oral bioavailability of (2R,6R)-HNK. […] PK is performed using tandem liquid chromatography-mass spectrometry (LC-MS/MS) for quantification. […] Statistical significance is calculated using the unpaired t-test or Mann-Whitney U test for comparing AUC values. […] E2 levels are measured with liquid chromatography tandem mass spectrometry (LC-MS/MS) using standard methods. […] If levels of E2 are too low to be quantified via this measure, and to distinguish naturally-produced from DHED prodrug-produced E2, E2 levels can be quantitated at the femtomole level utilizing deuterium-labelled E2 standards and triple quadrupole mass spectrometry.

Data set [4] concerns estrogen or other hormone receptors. To be noted: cited from earlier work.
The subject of the next data set is rodents. The note with it: high doses administered orally to rodents; cited from earlier work.
For data set [5], the system named is progesterone receptor (PR) expression. The note with it: rat, in vivo; cited from earlier work.
The test system of the next data set is galanin expression. To be noted: rat, in vivo; cited from earlier work.
In the next data set the test system is C3 expression. The note with it: rat, in vivo; cited from earlier work.

As to `C[C@]12CC[C@H]3[C@@H](CCC4=CC(=O)C=C[C@@]43O)[C@@H]1CC[C@@H]2O` [DHED, 10β,17β-dihydroxyestra-1,4-dien-3-one], in the data set on male mice [1], the “stress-induced social interaction deficits” value was “reversed the social interaction and hedonic deficits”. In addition, the stress-induced anhedonia result in the data set with male mice [2] was “reversed the social interaction and hedonic deficits”. In data set [3] (chronic treatment), the body weight result was “did not increase; also recorded: no difference” and the seminal vesicle weight entry is “did not increase; also recorded: no difference”. Moreover, in data set [3] (s.c. treatment, compared to vehicle (saline) control), the “relative seminal vesicle weights” value was “unaffected”. Also, the bioavailability in the data set “in vivo” (oral bioavailability measured in brain) is < 2%. This molecule also came in with a bioavailability in the data set “in vivo” (oral bioavailability measured in plasma) of 10%. Besides, the “effects on estrogen or other hormone receptors throughout the body” value in [4] is given as “no effects on estrogen or other hormone receptors”. Moreover, the “efficacy in models of hot flushes” value in the data set on rodents is recorded as “E2-like efficacy”. Further, the “medial preoptic area PR expression” value in [5] is reported as “increases medial preoptic area PR expression”. Also, the pituitary galanin expression entry in the data set with galanin expression is “does not change”. Further, the “uterus C3 expression” value in the data set with C3 expression was “does not change”.

(Values after US20260248809A1, “ESTRADIOL PRODRUGS AND METHODS OF USE THEREOF” (UNIVERSITY OF MARYLAND, BALTIMORE, priority 2022, published 2026).)
